Assay results: patent US20230192715A1 (priority 2020, published 2023)

Experiments:
PD95, GluR1 = conditions: in vivo; cited from earlier work
[1] = Double-blind placebo controlled randomized clinical trial in major depressive disorder; assay type: in vivo, human
BDNF = conditions: humans; plasma, healthy volunteers, 14-day Phase 1 study; cited from earlier work
mRNA for NMDAR1 = conditions: in vitro; cited from earlier work
serotonin receptors = conditions: Rickli et al, 2018; cited from earlier work

Row | SMILES | levels of PD95, GluR1 (PD95, GluR1) | persistence of remission ([1]; after discontinuation of treatment) | patients with remission of disease (MADRS<10) ([1]; within the first week of treatment, 5% in patients randomized to placebo) | BDNF (BDNF) | mRNA for NMDAR1 (mRNA for NMDAR1) | actions at serotonin receptors (serotonin receptors)
1 | CCC(=O)C(C[C@H](C)N(C)C)(c1ccccc1)c1ccccc1 [Dextromethadone] | increases levels of PD95, GluR1 | persisted for at least seven days after discontinuation of treatment | over 30% | increases BDNF | increases mRNA for NMDAR1 | –
2 | CN1CC[C@@]23c4c5ccc(O)c4O[C@@H]2[C@H](O)C=C[C@@H]3[C@@H]1C5 [Levomorphine] | – | – | – | – | – | no actions at serotonin receptors
